Reference: patent US10517294B2, “Dihydrothiophene derivatives as insecticidal compounds” (priority 2012, dated 2019)

Experiments:
Type in all cases: in vivo
Spodoptera littoralis = Spodoptera littoralis (Egyptian cotton leaf worm), sprayed cotton leaf discs; settings: foliar, 72 h, application rate 200 ppm, L1 larvae on cotton leaf discs, 3 days after infestation, read-out: control (at least one of mortality, anti-feedant effect, growth inhibition)
Method: Cotton leaf discs were placed on agar in 24-well microtiter plates and sprayed with aqueous test solutions prepared from 10′000 ppm DMSO stock solutions. After drying the leaf discs were infested with five L1 larvae. The samples were assessed for mortality, anti-feedant effect, and growth inhibition 3 days after infestation. Control of Spodoptera littoralis by a test sample is noted when at least one of mortality, anti-feedant effect, and growth inhibition is better than the untreated sample.

Heliothis virescens = Heliothis virescens (tobacco budworm), eggs on artificial diet; settings: application rate 200 ppm, eggs 0-24 h old on artificial diet, 5 days after infestation, read-out: control (at least one of egg mortality, larval mortality, growth inhibition)
Method: Eggs (0-24 h old) were placed in 24-well microtiter plates on artificial diet and treated with aqueous test solutions prepared from 10′000 ppm DMSO stock solutions by pipetting. The samples were assessed for egg mortality, larval mortality and growth inhibition 5 days after infestation. Control of Heliothis virescens by a test sample is noted when at least one of egg mortality, larval mortality and growth inhibition is better than the untreated sample.

Plutella xylostella = Plutella xylostella (diamond back moth), artificial diet; settings: 120 h, application rate 200 ppm, L2 larvae on artificial diet, 5 days after infestation, read-out: control (at least one of mortality, growth inhibition)
Method: (§1) 24-well microtiter plates with artificial diet were treated with aqueous test solutions prepared from 10′000 ppm DMSO stock solutions by pipetting. After drying, the plates were infested with L2 larvae (10 to 15 per well). The samples were assessed for mortality and growth inhibition 5 days after infestation. Control of Plutella xyllostella by a test sample is noted when at least one of mortality and growth inhibition is better than the untreated sample.

Diabrotica balteata [1] = experiment: Diabrotica balteata (corn root worm), artificial diet; settings: 120 h, application rate 200 ppm, L2 larvae on artificial diet, 5 days after infestation, read-out: control (at least one of mortality, growth inhibition)
Method: as §1, with “(6” for “(10”, “10” for “15”, “Diabrotica balteata” for “Plutella xyllostella”

Thrips tabaci = Thrips tabaci (onion thrips), sprayed sunflower leaf discs; settings: foliar, 144 h, application rate 200 ppm, mixed ages on sunflower leaf discs, 6 days after infestation, read-out: control (mortality)
Method: (§2) Sunflower leaf discs were placed on agar in 24-well microtiter plates and sprayed with aqueous test solutions prepared from 10′000 ppm DMSO stock solutions. After drying the leaf discs were infested with a thrips population of mixed ages. The samples were assessed for mortality 6 days after infestation.

Tetranychus urticae = Tetranychus urticae (two-spotted spider mite), sprayed bean leaf discs; settings: foliar, 192 h, application rate 200 ppm, mixed ages on bean leaf discs, 8 days after infestation, read-out: control (mortality, mobile stages)
Method: as §2, with “Bean” for “Sunflower”, “discs” for “discs were placed”, “were” for “and”, “mite” for “thrips”, “(mobile stages) 8” for “6”

Euschistus heros = Euschistus heros (neotropical brown stink bug), sprayed soybean plants; settings: 120 h, application rate 50 ppm, N2 nymphs on sprayed soybean plants, 5 days after infestation, read-out: control (at least one of mortality, growth inhibition)
Method: Two weeks old soybean plants were sprayed in a turn table spray chamber with the diluted spray solutions. After drying 2 soybean seeds were added and plants were infested with 10 N2 nymphs of the neotropical brown stink bug Euschistus heros in plastic test boxes. The samples were assessed for mortality and growth inhibition 5 days after infestation. Control of Euschistus heros by a test sample is noted when at least one of mortality and growth inhibition is better than the untreated sample.

Diabrotica balteata [2] = experiment: Diabrotica balteata (corn root worm), sprayed maize sprouts; settings: 96 h, application rate 200 ppm, L2 larvae on sprayed maize sprouts, 4 days after infestation, read-out: control (at least one of mortality, growth inhibition)
Method: Maize sprouts, placed on an agar layer in 24-well microtiter plates were treated with aqueous test solutions prepared from 10′000 ppm DMSO stock solutions by spraying. After drying, the plates were infested with L2 larvae (6 to 10 per well). The samples were assessed for mortality and growth inhibition 4 days after infestation. Control of Diabrotica balteata by a test sample is noted when at least one of mortality and growth inhibition is better than the untreated sample.

Cc1cc(C2=CSC(c3cc(Cl)cc(Cl)c3)(C(F)(F)F)C2)ccc1C(=O)NC1CCC1 (stereo not shown) [Compound A1, N-cyclobutyl-4-[2-(3,5-dichlorophenyl)-2-(trifluoromethyl)-3H-thiophen-4-yl]-2-methyl-benzamide]
≥ 80%: percent control (mortality, anti-feedant effect or growth inhibition) at 200 ppm (Spodoptera littoralis) | mortality at 200 ppm (Heliothis virescens) | mortality at 200 ppm (Plutella xylostella) | mortality at 200 ppm (Diabrotica balteata [1]) | mortality at 200 ppm (Thrips tabaci) | mortality at 200 ppm (Tetranychus urticae) | mortality at 50 ppm (Euschistus heros)

Cc1cc(C2=CSC(c3cc(Cl)cc(Cl)c3)(C(F)(F)F)C2)ccc1C(=O)NCC(F)(F)F (stereo not shown) [Compound A2, 4-[2-(3,5-dichlorophenyl)-2-(trifluoromethyl)-3H-thiophen-4-yl]-2-methyl-N-(2,2,2-trifluoroethyl)benzamide]
≥ 80%: percent control (mortality, anti-feedant effect or growth inhibition) at 200 ppm (Spodoptera littoralis) | mortality at 200 ppm (Heliothis virescens) | mortality at 200 ppm (Plutella xylostella) | mortality at 200 ppm (Diabrotica balteata [1]) | mortality at 200 ppm (Thrips tabaci) | mortality at 200 ppm (Tetranychus urticae) | mortality at 50 ppm (Euschistus heros)

Cc1cc(C2=CSC(c3cc(Cl)cc(Cl)c3)(C(F)(F)F)C2)ccc1C(=O)NCC(=O)NCC(F)(F)F (stereo not shown) [Compound A3, 4-[2-(3,5-dichlorophenyl)-2-(trifluoromethyl)-3H-thiophen-4-yl]-2-methyl-N-[2-oxo-2-(2,2,2-trifluoroethylamino)ethyl]benzamide]
≥ 80%: percent control (mortality, anti-feedant effect or growth inhibition) at 200 ppm (Spodoptera littoralis) | mortality at 200 ppm (Heliothis virescens) | mortality at 200 ppm (Plutella xylostella) | mortality at 200 ppm (Diabrotica balteata [1]) | mortality at 200 ppm (Thrips tabaci) | mortality at 200 ppm (Tetranychus urticae) | mortality at 50 ppm (Euschistus heros)

Cc1cc(C2=CSC(c3cc(Cl)cc(Cl)c3)(C(F)(F)F)C2)ccc1C(=O)NC1CS(=O)(=O)C1 (stereo not shown) [Compound A4, 4-[2-(3,5-dichlorophenyl)-2-(trifluoromethyl)-3H-thiophen-4-yl]-N-(1,1-dioxothietan-3-yl)-2-methyl-benzamide]
≥ 80%: percent control (mortality, anti-feedant effect or growth inhibition) at 200 ppm (Spodoptera littoralis) | mortality at 200 ppm (Heliothis virescens) | mortality at 200 ppm (Plutella xylostella) | mortality at 200 ppm (Diabrotica balteata [1]) | mortality at 200 ppm (Thrips tabaci) | mortality at 200 ppm (Tetranychus urticae) | mortality at 50 ppm (Euschistus heros)

Cc1cc(C2=CSC(c3cc(Cl)cc(Cl)c3)(C(F)(F)F)C2)ccc1C(=O)NC1CSC1 (stereo not shown) [Compound A5, 4-[2-(3,5-dichlorophenyl)-2-(trifluoromethyl)-3H-thiophen-4-yl]-2-methyl-N-(thietan-3-yl)benzamide]
≥ 80%: percent control (mortality, anti-feedant effect or growth inhibition) at 200 ppm (Spodoptera littoralis) | mortality at 200 ppm (Heliothis virescens) | mortality at 200 ppm (Plutella xylostella) | mortality at 200 ppm (Diabrotica balteata [1]) | mortality at 200 ppm (Thrips tabaci) | mortality at 200 ppm (Tetranychus urticae) | mortality at 50 ppm (Euschistus heros)

Cc1cc(C2=CSC(c3cc(Cl)cc(Cl)c3)(C(F)(F)F)C2)ccc1C(N)=O (stereo not shown) [Compound A6, 4-[2-(3,5-dichlorophenyl)-2-(trifluoromethyl)-3H-thiophen-4-yl]-2-methyl-benzamide]
≥ 80%: percent control (mortality, anti-feedant effect or growth inhibition) at 200 ppm (Spodoptera littoralis) | mortality at 200 ppm (Heliothis virescens) | mortality at 200 ppm (Plutella xylostella) | mortality at 200 ppm (Diabrotica balteata [1])

Cc1cc(C2=CSC(c3cc(Cl)cc(Cl)c3)(C(F)(F)F)C2)ccc1C(=O)N[C@H]1C[S@@+]([O-])C1 (stereo partly shown) [Compound A7, 4-[2-(3,5-dichlorophenyl)-2-(trifluoromethyl)-3H-thiophen-4-yl]-2-methyl-N-(1-oxidothietan-1-ium-3-yl)benzamide]
≥ 80%: percent control (mortality, anti-feedant effect or growth inhibition) at 200 ppm (Spodoptera littoralis) | mortality at 200 ppm (Heliothis virescens) | mortality at 200 ppm (Plutella xylostella) | mortality at 200 ppm (Diabrotica balteata [1]) | mortality at 200 ppm (Thrips tabaci) | mortality at 200 ppm (Tetranychus urticae) | mortality at 50 ppm (Euschistus heros)

Cc1cc(C2=CSC(c3cc(Cl)cc(Cl)c3)(C(F)(F)F)C2)ccc1C(=O)NCc1ccccn1 (stereo not shown) [Compound A8, 4-[2-(3,5-dichlorophenyl)-2-(trifluoromethyl)-3H-thiophen-4-yl]-2-methyl-N-(2-pyridylmethyl)benzamide]
≥ 80%: percent control (mortality, anti-feedant effect or growth inhibition) at 200 ppm (Spodoptera littoralis) | mortality at 200 ppm (Heliothis virescens) | mortality at 200 ppm (Plutella xylostella) | mortality at 200 ppm (Diabrotica balteata [1]) | mortality at 200 ppm (Thrips tabaci) | mortality at 200 ppm (Tetranychus urticae)

CCN1OC[C@@H](NC(=O)c2ccc(C3=CSC(c4cc(Cl)cc(Cl)c4)(C(F)(F)F)C3)cc2C)C1=O (stereo partly drawn) [Compound A9, 4-[2-(3,5-dichlorophenyl)-2-(trifluoromethyl)-3H-thiophen-4-yl]-N-[(4R)-2-ethyl-3-oxo-isoxazolidin-4-yl]-2-methyl-benzamide]
≥ 80%: percent control (mortality, anti-feedant effect or growth inhibition) at 200 ppm (Spodoptera littoralis) | mortality at 200 ppm (Heliothis virescens) | mortality at 200 ppm (Plutella xylostella) | mortality at 200 ppm (Diabrotica balteata [1]) | mortality at 200 ppm (Thrips tabaci) | mortality at 200 ppm (Tetranychus urticae) | mortality at 50 ppm (Euschistus heros)

CON/C=N/C(=O)c1ccc(C2=CSC(c3cc(Cl)cc(Cl)c3)(C(F)(F)F)C2)cc1C (stereo not shown) [Compound A10, (NE)-4-[2-(3,5-dichlorophenyl)-2-(trifluoromethyl)-3H-thiophen-4-yl]-N-[(methoxyamino)methylene]-2-methyl-benzamide]
≥ 80%: percent control (mortality, anti-feedant effect or growth inhibition) at 200 ppm (Spodoptera littoralis) | mortality at 200 ppm (Heliothis virescens) | mortality at 200 ppm (Plutella xylostella) | mortality at 200 ppm (Diabrotica balteata [1]) | mortality at 200 ppm (Tetranychus urticae)

Cc1cc(C2=C[S+]([O-])C(c3cc(Cl)cc(Cl)c3)(C(F)(F)F)C2)ccc1C(=O)NCC(F)(F)F (stereo not shown) [Compound B1, 4-[2-(3,5-dichlorophenyl)-1-oxido-2-(trifluoromethyl)-3H-thiophen-1-ium-4-yl]-2-methyl-N-(2,2,2-trifluoroethyl)benzamide]
≥ 80%: percent control (mortality, anti-feedant effect or growth inhibition) at 200 ppm (Spodoptera littoralis) | mortality at 200 ppm (Heliothis virescens) | mortality at 200 ppm (Plutella xylostella)

Cc1cc(C2=CS(=O)(=O)C(c3cc(Cl)cc(Cl)c3)(C(F)(F)F)C2)ccc1C(=O)NCC(F)(F)F (stereo not shown) [Compound B2, 4-[2-(3,5-dichlorophenyl)-1,1-dioxo-2-(trifluoromethyl)-3H-thiophen-4-yl]-2-methyl-N-(2,2,2-trifluoroethyl)benzamide]
≥ 80%: percent control (mortality, anti-feedant effect or growth inhibition) at 200 ppm (Spodoptera littoralis) | mortality at 200 ppm (Heliothis virescens) | mortality at 200 ppm (Plutella xylostella) | mortality at 200 ppm (Diabrotica balteata [1])

N#Cc1cc(C2=CSC(c3cc(Cl)c(Cl)c(Cl)c3)(C(F)(F)F)C2)ccc1-n1cncn1 (stereo not shown) [Compound C1, 2-(1,2,4-triazol-1-yl)-5-[2-(3,4,5-trichlorophenyl)-2-(trifluoromethyl)-3H-thiophen-4-yl]benzonitrile]
≥ 80%: percent control (mortality, anti-feedant effect or growth inhibition) at 200 ppm (Spodoptera littoralis) | mortality at 200 ppm (Heliothis virescens) | mortality at 200 ppm (Plutella xylostella) | mortality at 200 ppm (Diabrotica balteata [1])

CCN1OC[C@@H](NC(=O)c2ccc(C3=CS[C@@](c4cc(Cl)cc(Cl)c4)(C(F)(F)F)C3)cc2C)C1=O [Compound D7, 4-[(2S)-2-(3,5-dichlorophenyl)-2-(trifluoromethyl)-3H-thiophen-4-yl]-N-(2-ethyl-3-oxo-isoxazolidin-4-yl)-2-methyl-benzamide]
≥ 80%: percent control (mortality, anti-feedant effect or growth inhibition) at 200 ppm (Spodoptera littoralis) | mortality at 200 ppm (Plutella xylostella) | mortality at 200 ppm (Diabrotica balteata [2]) | mortality at 200 ppm (Thrips tabaci) | mortality at 200 ppm (Tetranychus urticae)

Cc1cc(C2=CS[C@@](c3cc(Cl)cc(Cl)c3)(C(F)(F)F)C2)ccc1C(=O)N[C@H]1C[S@@+]([O-])C1 [Compound D8, 4-[(2S)-2-(3,5-dichlorophenyl)-2-(trifluoromethyl)-3H-thiophen-4-yl]-2-methyl-N-(1-oxothietan-3-yl)benzamide]
≥ 80%: percent control (mortality, anti-feedant effect or growth inhibition) at 200 ppm (Spodoptera littoralis) | mortality at 200 ppm (Plutella xylostella) | mortality at 200 ppm (Diabrotica balteata [2]) | mortality at 200 ppm (Thrips tabaci) | mortality at 200 ppm (Tetranychus urticae)
